Results: patent EP1090023B1 (GLAXO GROUP LIMITED, priority 1998, dated 1999)

What was measured:
Type in all cases: cell-based
[1] = biological target: adenosine 2a (Homo sapiens, UniProt P29274); assay: Agonist activity against adenosine receptor subtypes, CHO cells with cAMP response element/SPAP reporter (basal cAMP); conditions: ratio to EC50 of NECA; transfected CHO cells; effect on basal cAMP via SPAP
Description: (§1) Compounds of the invention were tested for in vitro and in vivo biological activity in accordance with the following screens: • (1) Agonist activity against adenosine 2a, adenosine 1 and adenosine 3 receptor subtypes.
(§2) Agonist selectivity of compounds against other human adenosine receptors was determined using Chinese hamster ovary (CHO) cells transfected with the gene for the relevant human adenosine receptor following a method based on that of Castanon and Spevak, 1994 . The CHO cells were also transfected with cyclic AMP response elements promoting the gene for secreted placental alkaline phosphatase (SPAP) (Wood, 1995). The effect of test compounds was determined by their effects on basal levels of cAMP (A2a) or on forskolin-enhanced cAMP (A1 and A3) as reflected by changes in levels of SPAP. EC50 values for compounds were then determined as a ratio to that of the non-selective agonist N-ethyl carboxamide adenosine (NECA).

[2] = biological target: T1, adenosine 1 (Homo sapiens, UniProt P30542); assay: Agonist activity against adenosine receptor subtypes, CHO cells with cAMP response element/SPAP reporter (forskolin-enhanced cAMP); conditions: ratio to EC50 of NECA; transfected CHO cells; effect on forskolin-enhanced cAMP via SPAP
T1 sequence (P30542 1-326): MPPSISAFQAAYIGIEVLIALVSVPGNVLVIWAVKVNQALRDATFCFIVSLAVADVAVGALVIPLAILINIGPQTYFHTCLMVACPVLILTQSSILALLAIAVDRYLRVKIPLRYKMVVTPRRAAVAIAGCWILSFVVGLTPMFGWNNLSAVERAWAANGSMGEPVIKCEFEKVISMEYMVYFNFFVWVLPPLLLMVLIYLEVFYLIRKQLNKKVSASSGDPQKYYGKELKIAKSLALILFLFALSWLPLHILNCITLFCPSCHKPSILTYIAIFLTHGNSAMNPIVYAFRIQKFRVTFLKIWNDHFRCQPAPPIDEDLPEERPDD
Description: as §1, §2

[3] = biological target: T2, adenosine 3 (Homo sapiens, UniProt P0DMS8); assay: as above; conditions: ratio to EC50 of NECA; transfected CHO cells; effect on forskolin-enhanced cAMP via SPAP
T2 sequence (P0DMS8 1-318): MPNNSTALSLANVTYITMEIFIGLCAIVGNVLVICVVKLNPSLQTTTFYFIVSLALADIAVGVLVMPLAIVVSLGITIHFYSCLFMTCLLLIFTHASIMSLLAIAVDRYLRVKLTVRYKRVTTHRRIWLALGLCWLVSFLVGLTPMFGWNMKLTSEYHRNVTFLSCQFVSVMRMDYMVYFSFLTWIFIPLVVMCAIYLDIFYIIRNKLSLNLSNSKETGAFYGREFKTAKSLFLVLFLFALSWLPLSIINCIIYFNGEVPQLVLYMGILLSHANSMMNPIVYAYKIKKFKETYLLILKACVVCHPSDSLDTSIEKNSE
Description: as §1, §2

Sequence of adenosine 2a (P29274 whole entry): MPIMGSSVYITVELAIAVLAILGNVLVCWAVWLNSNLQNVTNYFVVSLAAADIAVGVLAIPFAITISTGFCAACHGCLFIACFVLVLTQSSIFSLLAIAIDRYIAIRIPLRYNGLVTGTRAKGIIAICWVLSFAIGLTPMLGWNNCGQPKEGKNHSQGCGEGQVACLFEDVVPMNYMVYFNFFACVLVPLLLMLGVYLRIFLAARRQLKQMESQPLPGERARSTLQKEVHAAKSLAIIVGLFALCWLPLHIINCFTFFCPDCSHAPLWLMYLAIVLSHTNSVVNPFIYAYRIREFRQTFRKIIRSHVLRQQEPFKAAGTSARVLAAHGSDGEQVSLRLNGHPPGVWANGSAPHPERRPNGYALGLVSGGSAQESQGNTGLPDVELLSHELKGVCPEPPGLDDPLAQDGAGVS

Row | SMILES | A2a (EC50 values as a ratio of that of NECA) [1] | A1 (EC50 values as a ratio of that of NECA) [2] | A3 (EC50 values as a ratio of that of NECA) [3]
1 | CCc1nc([C@H]2O[C@@H](n3cnc4c(NCC(c5ccccc5)c5ccccc5)nc(N[C@H]5CC[C@H](N)CC5)nc43)[C@H](O)[C@@H]2O)no1.O=CO.O=CO (relative stereo) [Example 12, (2R,3R,4S,5R)-2-[2-(trans-4-Amino-cyclohexylamino)-6-(2,2-diphenyl-ethylamino)-purin-9-yl]-5-(5-ethyl-[1,2,4]oxadiazol-3-yl)-tetrahydro-furan-3,4-diol diformate] | 4.77 | >8841 | >194
2 | CCC(CC)Nc1nc(N[C@H]2CC[C@H](N)CC2)nc2c1ncn2[C@@H]1O[C@H](c2nnc(C3CC3)o2)[C@@H](O)[C@H]1O.O=CO.O=CO (relative stereo) [Example 36, (2R,3R,4S,5S)-2-[2-(trans-4-Amino-cyclohexylamino)-6-(1-ethyl-propylamino)-purin-9-yl]-5-(5-cyclopropyl-[1,3,4]oxadiazol-2-yl)-tetrahydro-furan-3,4-diol diformate] | 26.3 | 1105.6 | >173
3 | Cc1nnc([C@H]2O[C@@H](n3cnc4c(NCC(c5ccccc5)c5ccccc5)nc(NCCN5CCCC5)nc43)[C@H](O)[C@@H]2O)[nH]1.O=CO [Example 1, (2R,3R,4S,5R)-2-[6-(2,2-Diphenyl-ethylamino)-2-(2-pyrrolidin-1-yl-ethylamino)-purin-9-yl]-5-(5-methyl-4H-[1,2,4]triazol-3-yl)-tetrahydro-furan-3,4-diol formate] | 14.6 | >8325 | >1088
4 | Cc1nnc([C@H]2O[C@@H](n3cnc4c(NCC(c5ccccc5)c5ccccc5)nc(N[C@H](CO)Cc5ccccc5)nc43)[C@H](O)[C@@H]2O)[nH]1.O=CO [Example 2, (2R,3R,4S,5R)-2-[6-(2,2-Diphenyl-ethylamino)-2-(1S-hydroxymethyl-2-phenyl-ethylamino)-purin-9-yl]-5-(5-methyl-4H-[1,2,4]triazol-3-yl)-tetrahydro-furan-3,4-diol formate] | 2.46 | >=7728 | >1087
5 | Cc1nnc([C@H]2O[C@@H](n3cnc4c(NCC(c5ccccc5)c5ccccc5)nc(NCCc5cn(C)cn5)nc43)[C@H](O)[C@@H]2O)[nH]1.O=CO [Example 3, (2R,3R,4S,5R)-2-{6-(2,2-Diphenyl-ethylamino)-2-[2-(1-methyl-1H-imidazol-4-yl)-ethylamino]-purin-9-yl}-5-(5-methyl-4H-[1,2,4]triazol-3-yl)-tetrahydro-furan-3,4-diol formate] | 3.54 | >9058 | >698
6 | Cc1nnc([C@H]2O[C@@H](n3cnc4c(NCC(c5ccccc5)c5ccccc5)nc(N[C@H]5CC[C@H](N)CC5)nc43)[C@H](O)[C@@H]2O)[nH]1.O=CO [Example 4, (2R,3R,4S,5R)-2-[2-(trans-4-Amino-cyclohexylamino)-6-(2,2-diphenyl-ethylamino)-purin-9-yl]-5-(5-methyl-4H-[1,2,4]triazol-3-yl)-tetrahydro-furan-3,4-diol formate] | 5.1 | 4686 | >1052
7 | CCc1nnc([C@H]2O[C@@H](n3cnc4c(NCC(c5ccccc5)c5ccccc5)nc(N[C@H](CO)Cc5ccccc5)nc43)[C@H](O)[C@@H]2O)[nH]1.O=CO [Example 5, (2R,3R,4S,5R)-2-[6-(2,2-Diphenyl-ethylamino)-2-(1S-hydroxymethyl-2-phenyl-ethylamino)-purin-9-yl]-5-(5-ethyl-4H-[1,2,4]triazol-3-yl)-tetrahydro-furan-3,4-diol formate] | 1 | >=5194 | >319
8 | CCc1nnc([C@H]2O[C@@H](n3cnc4c(NCC(c5ccccc5)c5ccccc5)nc(N[C@H]5CC[C@H](N)CC5)nc43)[C@H](O)[C@@H]2O)[nH]1.O=CO [Example 6, (2R,3R,4S,5R)-2-[2-(trans-4-Amino-cyclohexylamino)-6-(2,2-diphenyl-ethylamino)-purin-9-yl]-5-(5-ethyl-4H-[1,2,4]triazol-3-yl)-tetrahydro-furan-3,4-diol formate] | 12.3 | 6739 | >183
9 | CCc1nnc([C@H]2O[C@@H](n3cnc4c(NCC(c5ccccc5)c5ccccc5)nc(N[C@H](CO)C(C)C)nc43)[C@H](O)[C@@H]2O)[nH]1.O=CO [Example 7, (2R,3R,4S,5R)-2-[6-(2,2-Diphenyl-ethylamino)-2-(1S-hydroxymethyl-2-methyl-propylamino)-purin-9-yl]-5-(5-ethyl-4H-[1,2,4]triazol-3-yl)-tetrahydro-furan-3,4-diol formate] | 2.94 | 5327 | >183
10 | CCc1nnc([C@H]2O[C@@H](n3cnc4c(NCC(c5ccccc5)c5ccccc5)nc(NCCN5CCOCC5)nc43)[C@H](O)[C@@H]2O)[nH]1.O=CO [Example 8, (2R,3R,4S,5R)-2-[6-(2,2-Diphenyl-ethylamino)-2-(2-morpholin-4-yl-ethylamino)-purin-9-yl]-5-(5-ethyl-4H-[1,2,4]triazol-3-yl)-tetrahydro-furan-3,4-diol formate] | 19.4 | >10735 | >183
11 | CCc1nnc([C@H]2O[C@@H](n3cnc4c(NCC(c5ccccc5)c5ccccc5)nc(N[C@@H]5CCNC5)nc43)[C@H](O)[C@@H]2O)[nH]1.O=CO [Example 9, (2R,3R,4S,5R)-2-[6-(2,2-Diphenyl-ethylamino)-2-(pyrrolidin-3R-ylamino)-purin-9-yl]-5-(5-ethyl-4H-[1,2,4]triazol-3-yl)-tetrahydro-furan-3,4-diol formate] | 3.25 | >6032 | >147
12 | CC(C)c1nnc([C@H]2O[C@@H](n3cnc4c(NCC(c5ccccc5)c5ccccc5)nc(N[C@H]5CC[C@H](N)CC5)nc43)[C@H](O)[C@@H]2O)[nH]1.O=CO [Example 10, (2R,3R,4S,5R)-2-[2-(trans-4-Amino-cyclohexylamino)-6-(2,2-diphenyl-ethylamino)-purin-9-yl]-5-(5-isopropyl-4H-[1,2,4]triazol-3-yl)-tetrahydro-furan-3,4-diol formate] | 16.85 | 1453.5 | >326
13 | CC(C)c1nnc([C@H]2O[C@@H](n3cnc4c(NCC(c5ccccc5)c5ccccc5)nc(N[C@H](CO)Cc5ccccc5)nc43)[C@H](O)[C@@H]2O)[nH]1.O=CO [Example 11, (2R,3R,4S,5R)-2-[6-(2,2-Diphenyl-ethylamino)-2-(1S-hydroxymethyl-2-phenyl-ethylamino)-purin-9-yl]-5-(5-isopropyl-4H-[1,2,4]triazol-3-yl)-tetrahydro-furan-3,4-diol formate] | 17.97 | 2202 | >257
14 | CCc1nc([C@H]2O[C@@H](n3cnc4c(NCC(c5ccccc5)c5ccccc5)nc(NCCc5cn(C)cn5)nc43)[C@H](O)[C@@H]2O)no1.O=CO [Example 13, (2R,3R,4S,5R)-2-{6-(2,2-Diphenyl-ethylamino)-2-[2-(1-methyl-1H-imidazol-4-yl)-ethylamino]-purin-9-yl}-5-(5-ethyl-[1,2,4]oxadiazol-3-yl)-tetrahydro-furan-3,4-diol formate] | 1.29 | 6620 | >194
15 | CCc1nc([C@H]2O[C@@H](n3cnc4c(NCC(c5ccccc5)c5ccccc5)nc(NCCN5CCCCC5)nc43)[C@H](O)[C@@H]2O)no1.O=CO [Example 14, (2R,3R,4S,5R)-2-[6-(2,2-Diphenyl-ethylamino)-2-(2-piperidin-1-yl-ethylamino)-purin-9-yl]-5-(5-ethyl-[1,2,4]oxadiazol-3-yl)-tetrahydro-furan-3,4-diol formate] | 12.86 | >=4762 | >190
